Test results: patent US9938262B2, “Benzamides” (Merck Patent GmbH, priority 2011, dated 2018)
Read-outs that look alike come from different tables or passages of the source.

Assays:
[1] = target: T1, follicle-stimulating hormone (FSH) receptor (Rattus norvegicus, UniProt P20395); experiment: Rat granulosa EC50 FSH (Assay B); format: cell-based; details: rat granulosa cells
T1 construct: endogenous in cells; host or cells: rat granulosa cells
T1 sequence (P20395 18-692): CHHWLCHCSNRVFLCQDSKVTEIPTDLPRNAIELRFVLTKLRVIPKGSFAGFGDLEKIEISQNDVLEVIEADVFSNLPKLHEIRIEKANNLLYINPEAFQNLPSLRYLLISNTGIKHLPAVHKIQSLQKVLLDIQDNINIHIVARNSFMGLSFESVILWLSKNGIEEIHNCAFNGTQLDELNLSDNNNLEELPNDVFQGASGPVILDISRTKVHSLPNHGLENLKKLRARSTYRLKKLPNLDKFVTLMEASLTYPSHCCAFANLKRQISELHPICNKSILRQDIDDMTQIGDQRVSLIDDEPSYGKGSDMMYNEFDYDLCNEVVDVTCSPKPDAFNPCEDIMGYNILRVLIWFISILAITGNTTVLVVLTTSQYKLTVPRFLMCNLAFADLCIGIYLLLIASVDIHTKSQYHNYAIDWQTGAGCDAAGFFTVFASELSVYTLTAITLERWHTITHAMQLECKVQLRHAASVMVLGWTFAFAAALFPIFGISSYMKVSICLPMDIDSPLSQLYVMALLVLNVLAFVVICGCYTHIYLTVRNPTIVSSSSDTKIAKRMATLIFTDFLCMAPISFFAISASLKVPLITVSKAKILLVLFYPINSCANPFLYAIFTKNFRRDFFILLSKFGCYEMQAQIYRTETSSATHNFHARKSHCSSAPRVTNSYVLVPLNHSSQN
Method: Example 11: Rat Granulosa EC50 FSH (Assay B)
The assay was performed pursuant to the teaching of Yanofsky et al. (2006) Allosteric activation of the follicle-stimulating hormone (FSH) receptor by selective, nonpeptide agonists. JBC 281(19): 13226-13233, which is incorporated by reference in the disclosure of the invention.

FSHR = target: T2, FSHR (Homo sapiens, UniProt P23945); experiment: EC50 of cyclic AMP production in CHO FSHR cells + EC20 FSH (Assay A); format: cell-based
T2 construct: expressed in transfected cells; host or cells: CHO (Cho-FSHR-LUC-1-1-43)
T2 sequence (P23945 18-695): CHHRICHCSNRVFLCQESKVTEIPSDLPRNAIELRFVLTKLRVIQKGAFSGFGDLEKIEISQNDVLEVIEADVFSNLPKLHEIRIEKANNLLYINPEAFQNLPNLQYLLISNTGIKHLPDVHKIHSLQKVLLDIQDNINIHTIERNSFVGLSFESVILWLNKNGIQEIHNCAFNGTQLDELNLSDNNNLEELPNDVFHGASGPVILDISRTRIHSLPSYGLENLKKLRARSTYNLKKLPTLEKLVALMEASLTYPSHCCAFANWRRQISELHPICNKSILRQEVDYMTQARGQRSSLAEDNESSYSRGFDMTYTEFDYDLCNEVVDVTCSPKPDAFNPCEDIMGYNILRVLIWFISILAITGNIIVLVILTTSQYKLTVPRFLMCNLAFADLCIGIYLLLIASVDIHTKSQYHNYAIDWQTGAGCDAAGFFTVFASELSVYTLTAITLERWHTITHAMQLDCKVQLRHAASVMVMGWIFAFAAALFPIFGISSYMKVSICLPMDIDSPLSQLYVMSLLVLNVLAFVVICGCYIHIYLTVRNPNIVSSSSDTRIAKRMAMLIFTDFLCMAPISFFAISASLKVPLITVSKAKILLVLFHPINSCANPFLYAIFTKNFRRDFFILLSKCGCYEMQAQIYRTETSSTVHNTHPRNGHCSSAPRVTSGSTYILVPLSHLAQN
T2 sequence (P01215 25-116 partner): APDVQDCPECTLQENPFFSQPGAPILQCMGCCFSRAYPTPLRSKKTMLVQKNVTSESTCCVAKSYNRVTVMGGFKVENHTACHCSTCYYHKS
T2 sequence (P01225 19-129 partner): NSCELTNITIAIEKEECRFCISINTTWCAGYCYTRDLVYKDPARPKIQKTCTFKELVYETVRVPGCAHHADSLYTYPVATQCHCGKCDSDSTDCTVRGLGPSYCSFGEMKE
In short: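 cAMP HTRF ratio (665/620 nm) read after 1 h, 37 °C exposure of CHO-FSHR cells to compound in presence of EC20 FSH ([…]) and IBMX 200 μM. Responses given relative to FSH standard maximum; EC50 derived.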

[2] = CHO FSHR cells + EC20 FSH, Table 2, read-out: Assay A EC50 of cyclic AMP production
[3] = CHO FSHR cells + EC20 FSH, Table 1, read-out: Assay A EC50 of cyclic AMP production

SMILES	EC50 ([1]; Table 2)	EC50 (FSHR; [2])	EC50 ([1]; Table 1)	EC50 (FSHR; [3])	other results
Cc1ccccc1N1CCN(c2ccc(C(=O)NCCCN3CCCC3=O)cc2NC(=O)c2cscn2)CC1 [Compound 73]			1 to 10 µM	0.1 to 1 µM	
Cc1ccnc(N2CCN(c3ccc(C(=O)NCCCN4CCCC4=O)cc3NC(=O)c3coc(C4CC4)n3)CC2)c1 [Compound 529]	1 to 10 µM	0.1 to 1 µM			
Cc1ccccc1N1CCN(c2ccc(C(=O)NCCCN3CCCC3=O)cc2NC(=O)C2CC2)CC1 [Compound 84]			0.1 to 1 µM		
Cc1nc(C)n(CCCNC(=O)c2ccc(N3CCN(c4ccccc4C)CC3)c(NC(=O)c3coc(C4CC4)n3)c2)n1 [Compound 394]		0.1 to 1 µM			Assay B % at 1.25 μM ([1]; Table 2): 50%
Cc1ccccc1N1CCN(c2ccc(C(=O)NCCS(=O)(=O)N3CCCC3)cc2NC(=O)c2coc(C3CC3)n2)CC1 [Compound 344]	0.1 to 1 µM	1 to 10 µM			
Cc1ccccc1N1CCN(c2ccc(C(=O)NCc3cccc(C(N)=O)c3)cc2NC(=O)c2coc(C3CC3)n2)CC1 [Compound 304]		< 0.1 µM			Assay B % at 1.25 μM ([1]; Table 2): 79%
Cc1ccccc1N1CCN(c2ccc(C(=O)NCc3cccc(C(N)=O)c3)cc2NC(=O)c2ccco2)CC1 [Compound 189]			0.1 to 1 µM	< 0.1 µM	
Cc1ccccc1N1CCN(c2ccc(C(=O)NCCCN3CCCC3=O)cc2NC(=O)c2ccc(Br)o2)CC1 [Compound 143, 5-Bromo-furan-2-carboxylic acid [5-[3-(2-oxo-pyrrolidin-1-yl)-propylcarbamoyl]-2-(4-o-tolyl-piperazin-1-yl)-phenyl]-amide]			0.1 to 1 µM		EC50 (FSHR): 0.1 to 1 µM
Cc1ccccc1N1CCN(c2ccc(C(=O)NCCc3cccc(C(N)=O)c3)cc2NC(=O)c2coc(C3CC3)n2)CC1 [Compound 307]	1 to 10 µM	0.1 to 1 µM			
Cc1ccccc1N1CCN(c2ccc(C(=O)N3CCC4(CCOC4)CC3)cc2NC(=O)c2ccco2)CC1 [Compound 224]			1 to 10 µM		activation at 5 µM (FSHR; 1 h, 5 μM, effect relative to maximum response of the FSH standard, Table 1): 10%
Cc1ccccc1N1CCN(c2ccc(C(=O)N[C@H]3O[C@@H](CO)[C@H](O)[C@@H]3O)cc2NC(=O)c2coc(C3CC3)n2)CC1 [Compound 311]	0.1 to 1 µM	0.1 to 1 µM			
Cc1ccccc1N1CCN(c2ccc(C(=O)NCc3cccc(CN(C)C)c3)cc2NC(=O)c2ccco2)CC1 [Compound 320]	0.1 to 1 µM	0.1 to 1 µM			
Cc1ccccc1N1CCN(c2ccc(C(=O)NCCCN3CCCC3=O)cc2NC(=O)c2coc(C3CC3)n2)CC1 [Compound 105]			0.1 to 1 µM	< 0.1 µM	
Cc1ccccc1N1CCN(c2ccc(C(=O)NCCCN3CCCC3=O)cc2NC(=O)c2ccccn2)CC1 [Compound 36]			0.1 to 1 µM		
COc1ccnc(N2CCN(c3ccc(C(=O)NCCCN4CCCC4=O)cc3NC(=O)c3coc(C4CC4)n3)CC2)n1 [Compound 601]	1 to 10 µM	0.1 to 1 µM			
Cc1ccccc1N1CCN(c2ccc(C(=O)NC3CCN(S(C)(=O)=O)CC3)cc2NC(=O)c2ccco2)CC1 [Compound 58, Furan-2-carboxylic acid [5-(1-methanesulfonyl-piperidin-4-ylcarbamoyl)-2-(4-o-tolyl-piperazin-1-yl)-phenyl]-amide]				0.1 to 1 µM	Assay B % at 5 μM ([1]; Table 1): 27%
Cc1ccccc1N1CCN(c2ccc(C(=O)NCCCc3nn[nH]n3)cc2NC(=O)c2coc(C3CC3)n2)CC1 [Compound 392]	0.1 to 1 µM	< 0.1 µM			
Cc1ccccc1N1CCN(c2ccc(C(=O)NCCCN3CCCC3=O)cc2NCc2ccccn2)CC1 [Compound 526]	> 10 µM	0.1 to 1 µM			
O=C(NCC1CCCO1)c1ccc(N2CCN(Cc3ccccc3)CC2)c(NC(=O)c2ccccc2Cl)c1 (stereo not shown) [Compound 3]				0.1 to 1 µM	Assay B % at 5 μM ([1]; Table 1): 10%
O=C(NCCCN1CCCC1=O)c1ccc(N2CCN(c3ncccc3Cl)CC2)c(NC(=O)c2coc(C3CC3)n2)c1 [Compound 510]	1 to 10 µM	< 0.1 µM			

Now from value to molecule, other results behind:

EC50 ([1]; Table 2)	EC50 (FSHR; [2])	EC50 ([1]; Table 1)	EC50 (FSHR; [3])	SMILES	other results
1 to 10 µM	0.1 to 1 µM			Cc1ccc(CNc2cc(C(=O)NCCCN3CCCC3=O)ccc2N2CCN(c3ccccc3C)CC2)o1 [Compound 410]	
		0.1 to 1 µM	0.1 to 1 µM	Cc1ccccc1N1CCN(c2ccc(C(=O)NCCCN3CCCC3=O)cc2NC(=O)c2ccc(F)cc2)CC1 [Compound 31]	
		0.1 to 1 µM	0.1 to 1 µM	Cc1ccccc1N1CCN(c2ccc(C(=O)NCCCN3C(=O)CCC3=O)cc2NC(=O)c2ccco2)CC1 [Compound 147]	
		1 to 10 µM	0.1 to 1 µM	C#Cc1ccc(C(=O)Nc2cc(C(=O)NCCCN3CCCC3=O)ccc2N2CCN(c3ccccc3C)CC2)o1 [Compound 176, 5-ethynyl-furan-2-carboxylic acid [5-[3-(2-oxo-pyrrolidin-1-yl)-propylcarbamoyl]-2-(4-o-tolyl-piperazin-1-yl)-phenyl]-amide]	
		1 to 10 µM		Cc1ccccc1N1CCN(c2ccc(C(=O)NCCCN3CCCC3=O)cc2NC(=O)c2occc2C)CC1 [Compound 5]	
		0.1 to 1 µM	0.1 to 1 µM	CCc1nc(C(=O)Nc2cc(C(=O)NCCCN3CCCC3=O)ccc2N2CCN(c3ccccc3C)CC2)co1 [Compound 79]	
		0.1 to 1 µM	0.1 to 1 µM	Cc1ccccc1N1CCN(c2ccc(C(=O)NCCc3cccc(C(N)=O)c3)cc2NC(=O)c2ccco2)CC1 [Compound 188]	
		0.1 to 1 µM	0.1 to 1 µM	Cc1ccccc1N1CCN(c2ccc(C(=O)NCCc3c[nH]cn3)cc2NC(=O)c2ccco2)CC1 [Compound 15]	
0.1 to 1 µM	0.1 to 1 µM			Cc1ccc(C(=O)Nc2cc(C(=O)NCCCN3CCCC3=O)ccc2N2CCN(c3ccccc3C3CC3)CC2)o1 [Compound 523]	
		0.1 to 1 µM	0.1 to 1 µM	Cc1ccccc1N1CCN(c2ccc(C(=O)NCCCN3C(=O)CSC3=O)cc2NC(=O)c2ccco2)CC1 [Compound 150]	
1 to 10 µM	0.1 to 1 µM			Cc1ncc(C(=O)Nc2cc(C(=O)NCCCN3CCCC3=O)ccc2N2CCN(c3ccccc3C)CC2)o1 [Compound 349]	
		0.1 to 1 µM	0.1 to 1 µM	Cc1ccccc1N1CCN(c2ccc(C(=O)NCCCN3CCCC3=O)cc2NC(=O)c2ccc(Cl)o2)CC1 [Compound 135]	
		0.1 to 1 µM		Cc1ccccc1N1CCN(c2ccc(C(=O)NCCCC3CCOC3)cc2NC(=O)c2ccco2)CC1 (stereo not shown) [Compound 158]	
		0.1 to 1 µM	0.1 to 1 µM	Cc1ccccc1N1CCN(c2ccc(C(=O)NCCCN3CCCC3=O)cc2NC(=O)c2ccc(F)cn2)CC1 [Compound 128]	
			0.1 to 1 µM	Cc1ccc(C(=O)Nc2cc(C(=O)NCCCCO)ccc2N2CCN(c3ccccc3C)CC2)o1 [Compound 241, 5-Methyl-furan-2-carboxylic acid [5-(4-hydroxy-butylcarbamoyl)-2-(4-o-tolyl-piperazin-1-yl)-phenyl]-amide]	Assay B % at 5 μM ([1]; Table 1): 177%
		0.1 to 1 µM		Cc1ccc(C(=O)Nc2cc(C(=O)NCCCN3CCCC3=O)ccc2N2CCN(c3ccccc3C)CC2)o1 [Compound 6]	
		1 to 10 µM	0.1 to 1 µM	Cc1ccccc1N1CCN(c2ccc(C(=O)NCCCN3CCOC3=O)cc2NC(=O)c2ccco2)CC1 [Compound 155]	
		0.1 to 1 µM	0.1 to 1 µM	Cc1ccccc1N1CCN(c2ccc(C(=O)NCCCN3CCCC3=O)cc2NC(=O)c2coc(Cl)n2)CC1 [Compound 207]	
		1 to 10 µM	0.1 to 1 µM	Cc1ccc(C(=O)Nc2cc(C(=O)NCCCN3CCCC3=O)ccc2N2CCN(c3ccccc3C)CC2)cc1 [Compound 35]	
0.1 to 1 µM	0.1 to 1 µM			Cc1ccccc1N1CCN(c2ccc(C(=O)NCCCN3CCCC3=O)cc2NC(=O)c2ccn(C)n2)CC1 [Compound 435]	
		< 0.1 µM	0.1 to 1 µM	Cc1ccccc1N1CCN(c2ccc(C(=O)NCCCc3cn[nH]c3)cc2NC(=O)c2ccco2)CC1 [Compound 152]	
		1 to 10 µM		Cc1ccccc1N1CCN(c2ccc(C(=O)NCCCN3CCCC3=O)cc2NC(=O)c2ccccc2)CC1 [Compound 27]	
		0.1 to 1 µM	0.1 to 1 µM	Cc1nc(C(=O)Nc2cc(C(=O)NCCCN3CCCC3=O)ccc2N2CCN(c3ccccc3C)CC2)cs1 [Compound 74]	
		> 10 µM		Cc1nc(C(=O)Nc2cc(C(=O)NCCCN3CCCC3=O)ccc2N2CCN(c3ccccc3C)CC2)co1 [Compound 75]	
1 to 10 µM	0.1 to 1 µM			Cc1ccc(C(=O)Nc2cc(C(=O)NCCCN3CCOC3=O)ccc2N2CCN(c3ccccc3C)CC2)o1 [Compound 322]	
		1 to 10 µM	1 to 10 µM	Cc1ccc(C(=O)Nc2cc(C(=O)NCCCN3CCCC3=O)ccc2N2CCN(c3ccccc3C(F)(F)F)CC2)o1 [Compound 246]	
